# Where a chain is given by its changes, count along the chain named.
# How the values were obtained:
# [1] = test system: OCCCCO; test: purified protein, by the assay type; settings: Gly-NaOH pH 9.5, 30° C.
# [2] = target: T1, alcohol dehydrogenase KpADH mutant M2 (Y127C; parent SEQ ID No. 1) (Vanderwaltozyma polyspora, UniProt A7TM80, Y127C); test: Kinetic analysis of KpADH mutant M2 toward diol co-substrates; format: biochemical
# T1 sequence (A7TM80 1-342 Y127C): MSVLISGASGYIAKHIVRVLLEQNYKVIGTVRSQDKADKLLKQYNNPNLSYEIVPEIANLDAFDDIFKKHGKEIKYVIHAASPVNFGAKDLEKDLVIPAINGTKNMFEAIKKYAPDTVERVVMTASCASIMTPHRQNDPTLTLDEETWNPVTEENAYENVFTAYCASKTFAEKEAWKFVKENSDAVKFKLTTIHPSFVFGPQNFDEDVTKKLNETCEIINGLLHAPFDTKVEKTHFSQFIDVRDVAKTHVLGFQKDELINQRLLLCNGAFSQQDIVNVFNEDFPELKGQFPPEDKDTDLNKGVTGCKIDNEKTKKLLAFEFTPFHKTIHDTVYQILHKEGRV
# Procedure: M2 is obtained by mutating tyrosine at position 127 into cysteine in alcohol dehydrogenase having an original amino acid sequence as set forth in SEQ ID No. 1;
# (§1) Changes in absorbance at 340 nm are measured.
# (§2) The enzyme activity is calculated using the following formula: Enzyme activity (U)=EW×V×10^3/(6220×I);
# (§3) In the formula, EW is the change in absorbance at 340 nm in 1 min; V is the volume of the reaction solution in mL; 6220 is the molar extinction coefficient of NAD(P)H in L/(mol·cm); I is optical distance in cm.
# (§4) One unit of activity (U) corresponds to the amount of enzyme required for the catalytic oxidation of 1 μmol NADP^+ per minute under the above conditions. […]
# (§5) The Vmax and Km values can be calculated from the intercepts of the double reciprocal plot on the X and Y axes;
# (§6) The kcat value can be further calculated according to the formula.
# (§7) The activity of KpADH under different substrate concentrations and cofactor concentrations was measured, and a double reciprocal plot was made according to the reciprocals of the activity and substrate concentration. The kinetic parameters were calculated.
# (§8) The activity of KpADH under different substrate concentrations and cofactor concentrations was measured, and a double reciprocal plots were made according to the reciprocals of the activity and substrate concentration. The kinetic parameters were calculated.
# [3] = target: T2, alcohol dehydrogenase KpADH mutant M1 (V84I; parent SEQ ID No. 1) (Vanderwaltozyma polyspora, UniProt A7TM80, V84I); test: Kinetic analysis of KpADH mutant M1 toward diol co-substrates; format: biochemical
# T2 sequence (A7TM80 1-342 V84I): T1 sequence (A7TM80 1-342 Y127C) with V84I, C127Y
# Procedure: M1 is obtained by mutating valine at position 84 into isoleucine in alcohol dehydrogenase having an original amino acid sequence as set forth in SEQ ID No. 1;
# as §1, §2, §3
# (§9) One unit of activity (U) corresponds to the amount of enzyme required for the catalytic oxidation of 1 μmol NADP^+ per minute under the above conditions.
# (§10) Kinetic measurement is conducted according to the enzyme activity assay, with 10 μL of alcohol substrates of different concentrations, 1 mM NADP^+, 10 μL of enzymes of appropriate concentrations, 170 μL of glycine-sodium hydroxide buffer at pH 9.5, with each sample in triplicate. […] The calculation formulas are as follows: […]
# as §5, §6, §7, §8
# [4] = target: T3, alcohol dehydrogenase KpADH mutant M3 (Y127M; parent SEQ ID No. 1) (Vanderwaltozyma polyspora, UniProt A7TM80, Y127M); test: Kinetic analysis of KpADH mutant M3 toward diol co-substrates; format: biochemical; settings: for catalytic efficiency kcat/Km, times that of wild-type KpADH: mutant M3 relative to wild-type KpADH
# T3 sequence (A7TM80 1-342 Y127M): T1 sequence (A7TM80 1-342 Y127C) with C127M
# Procedure: M3 is obtained by mutating tyrosine at position 127 into methionine in alcohol dehydrogenase having an original amino acid sequence as set forth in SEQ ID No. 1;
# as §1, §2, §3, §9, §10, §5, §6, §7, §8
# [5] = target: T4, alcohol dehydrogenase KpADH mutant M5 (V84I/Y127M; parent SEQ ID No. 1) (Vanderwaltozyma polyspora, UniProt A7TM80, V84I/Y127M); test: Kinetic analysis of KpADH mutant M5 toward diol co-substrates; format: biochemical; settings: mutant M5 relative to wild-type KpADH
# T4 sequence (A7TM80 1-342 V84I/Y127M): T1 sequence (A7TM80 1-342 Y127C) with V84I, C127M
# Procedure: the M5 is obtained by mutating valine at position 84 into isoleucine and tyrosine at position 127 into methionine in alcohol dehydrogenase having an original amino acid sequence as set forth in SEQ ID No. 1.
# as §1, §2, §3, §9, §10, §5, §6, §7, §8
# [6] = target: alcohol dehydrogenase KpADH, wild type, SEQ ID No. 1 (Vanderwaltozyma polyspora, UniProt A7TM80); test: Kinetic analysis of wild-type KpADH toward diol co-substrates; format: biochemical; settings: 1 mM NADP+, Gly-NaOH pH 9.5, 30° C.
# Procedure: as §1, §2, §3, §4, §5, §6, §7, §8
# [7] = mutant M1, 1 mM NADP+, Gly-NaOH pH 9.5, 30° C.
# [8] = mutant M1 relative to wild-type KpADH
compound,measurement,setting,value
alcohol dehydrogenase KpADH mutant M3 (Y127M; parent SEQ ID No. 1) (Vanderwaltozyma polyspora DSM 70294; Y127M),Km,"[1]; other: mutant M3, 1 mM NADP+",12.1 ± 0.9 mM
same,kcat,"[1]; other: mutant M3, 1 mM NADP+",0.28 s⁻¹
same,kcat/Km,"[1]; other: mutant M3, 1 mM NADP+",23.2 M⁻¹ s⁻¹
"OCCCCO [1,4-butanediol]",catalytic rates kcat,[2],27.8 mM
same,kcat,[3]; [7],1.26 ± 0.0217 s⁻¹
same,kcat/KM,[3]; [7],10.3 M⁻¹ s⁻¹
same,"kcat value, times that of wild-type KpADH",[3]; [8],7.3 times
same,"kcat/Km value, times that of wild-type KpADH",[3]; [8],4.53 times
same,catalytic rates kcat,[4]; mutant M3,16.8 mM
same,"kcat/Km value, times that of wild-type KpADH",[5],14.7 times
"OCCCCCCO [1,6-hexanediol]",Km,[6],18.5 ± 1.5 mM
same,kcat,[6],0.698 ± 0.015 s⁻¹
same,"catalytic efficiency kcat/Km, times that of wild-type KpADH",[4],2.69 times
same,"kcat/Km value, times that of wild-type KpADH",[5],5.3 times
alcohol dehydrogenase KpADH mutant M5 (V84I/Y127M; parent SEQ ID No. 1) (Vanderwaltozyma polyspora DSM 70294; V84I/Y127M),Km,"[1]; other: mutant M5, 1 mM NADP+",11.3 ± 0.8 mM
same,kcat,"[1]; other: mutant M5, 1 mM NADP+",0.378 s⁻¹
same,kcat/Km,"[1]; other: mutant M5, 1 mM NADP+",33.5 M⁻¹ s⁻¹
"OCCCCCO [1,5-pentanediol]","catalytic efficiency kcat/Km, times that of wild-type KpADH",[4],4.36 times
same,"kcat/Km value, times that of wild-type KpADH",[5],3.14 times
alcohol dehydrogenase KpADH mutant M4 (V84I/Y127C; parent SEQ ID No. 1) (Vanderwaltozyma polyspora DSM 70294; V84I/Y127C),Km,"[1]; other: mutant M4, 1 mM NADP+",30.4 ± 1.3 mM
same,kcat,"[1]; other: mutant M4, 1 mM NADP+",0.652 s⁻¹
same,kcat/Km,"[1]; other: mutant M4, 1 mM NADP+",21.4 M⁻¹ s⁻¹
